The values below come from patent US6221914A, “Sulfonamide bridging compounds that inhibit tryptase activity” (Array Biopharma Inc., priority 1998, dated 2001).

In assay [1] the target is T1, Human Neutrophil elastase (Homo sapiens, UniProt P08246).
T1 construct: from tissue; host or cells: human neutrophils
T1 sequence (P08246 30-267): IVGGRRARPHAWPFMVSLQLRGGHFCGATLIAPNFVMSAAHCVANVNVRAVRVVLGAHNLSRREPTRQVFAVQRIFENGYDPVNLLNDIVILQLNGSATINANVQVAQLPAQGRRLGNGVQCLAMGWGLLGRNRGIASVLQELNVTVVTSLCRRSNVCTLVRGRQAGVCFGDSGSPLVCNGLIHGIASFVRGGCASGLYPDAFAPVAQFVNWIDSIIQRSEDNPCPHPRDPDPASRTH
Put plainly: Ki determination, human neutrophil elastase (pyroGlu-Pro-Val-pNA). Format: biochemical. The settings on record: 100 mM Tris-HCl, pH 8.3, 0.96 M NaCl, 1% BSA; read-out: Experimentally Determined Ki, Elastase. Put shortly:
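Enzyme preincubated with compound 15 min at 37° C. in 100 mM Tris-HCl pH 8.3, 0.96 M NaCl, 1% BSA, then pyroGlu-Pro-Val-pNA added; p-nitroaniline release read at 405 nm. Ki from tight-binding equation (active-site-titrated enzyme) corrected for substrate, or competitive-inhibitor equation when Ki >> [E]o.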

Assay [2] addresses Human lung tryptase. Put plainly: Ki determination, human lung tryptase (Tosyl-Gly-Pro-Arg-pNA substrate). Format: biochemical. The following applies: 50 mM Tris-HCl pH 8.0, 37° C., 1 nM tryptase, 320 μM GPR-pNA; read-out: Experimentally Determined Ki, Tryptase. The procedure, abridged:
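Human lung tryptase (gel-filtration purified, active-site titrated), 1 nM final, preincubated 5 min with compound in 50 mM Tris-HCl pH 8.0, 150 mM NaCl, 0.02% Triton X-100 at 37° C. Tosyl-Gly-Pro-Arg-pNA (320 μM final) added; A405 read after 15 min. Ki from fitting to two-site competitive binding equation.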

Assay [3] has as its system antigen-induced airway hyperresponsiveness in guinea pigs. Put plainly: Guinea pig airway hyperresponsiveness inhibition (ovalbumin-sensitized, histamine bronchoprovocation). The settings on record: 1 mg/kg, i.t., 1 hour before antigen challenge; histamine response 6 h after antigen. Type of assay: in vivo, guinea pig (male Hartley). Here is the method:
The compounds of the invention were tested for their ability to inhibit hyperresponsiveness in a guinea pig airway hyperresponsiveness screen according to the following protocol:
Male Hartley guinea pigs (Charles River Laboratories Inc., Wilmington, Mass.) were sensitized to ovalbumin by intraperitoneal injection with a 0.5 mL solution of 10 μg ovalbumin and 10 mg aluminum hydroxide in phosphate-buffered saline. […] Seven to nine weeks after the initial injection, the animals were used to evaluate antigen-induced guinea pig airway responses.
In order to evaluate antigen-induced airway hyperresponsiveness in guinea pigs, a baseline histamine bronchoprovocation was initially conducted in unrestrained animals. Guinea pigs (450-600 g) were placed in a whole body plethysmograph (Buxco Electronics, Troy, N.Y.). The animals were exposed to 5 second bursts of histamine aerosol generated by a DeVilbis ultrasonic nebulizer (Somerset, Pa.). […] Three days after the histamine baseline determination, the guinea pigs were again placed in the whole body plethysmograph and challenged with a 3 second aerosolized burst of 0.1% ovalbumin in phosphate-buffered saline. Six hours after antigen exposure, the development of hyperresponsiveness was evaluated by repeating the histamine bronchoprovocation. Comparisons between treatment groups were based on areas under the histamine dose response curves (AUC).
Test compounds were administered by intratracheal instillation at a dose of 1 mg/kg in PBS (pH 7.2), 1 hour before the antigen challenge. After anesthetizing a guinea pig with inhaled methoxyflurane, an endotracheal tube (18 gauge Teflon® sheath) was visually passed into the trachea with the aid of a fiberoptic light source. Test agents (or PBS for control animals) was dosed through the tube followed by a bolus of air to facilitate dispersion.
Two-way analysis of variance (ANOVA) followed by the Fisher PLSD test was used to evaluate areas under the curve ("AUC") for histamine dose responses in guinea pigs. Significance was accepted for p<0.05.

A word on the Ki: it is a measure of affinity in units of concentration, obtained from inhibition or displacement.

Where only a bound is given, the exact number is not on record here.

`N=C(N)c1cccc(S(=O)(=O)NCc2ccc(OCCCCOc3ccc(CNS(=O)(=O)c4cccc(C(=N)N)c4)cc3)cc2)c1` [Example 47, 1,4-Bis-{4-[(3-carbamimidoyl-benzenesulfonylamino)-methyl]-phenoxy}-butane]: the Ki in assay [1] was more than 100000 nM; in assay [2] it was 30 nM. For the same compound, the “Hyperresponsiveness AUC % Inhibition” value in assay [3] turned out to be 29%.
Consider `N=C(N)c1ccc(S(=O)(=O)NCc2ccc(OCCCOc3ccc(CNS(=O)(=O)c4ccc(C(=N)N)cc4)cc3)cc2)cc1` [Example 50, 1,3-Bis-{4-[(4-carbamimidoyl-benzenesulfonylamino)-methyl]-phenoxy}-propane], for which the inhibition constant Ki in assay [1] is more than 100000 nM; in assay [2], 800 nM. Besides, in assay [3], the “Hyperresponsiveness AUC % Inhibition” value is given as 50%.
In the case of `N=C(N)c1cccc(C(=O)NCc2ccc(OCCCCCOc3ccc(CNC(=O)c4cccc(C(=N)N)c4)cc3)cc2)c1` [Example 55, 1,5-Bis-{4-[(3-carbamimidoyl-benzenecarbonylamino)-methyl]-phenoxy}-pentane], the figures for the Ki in assay [1] and in assay [2] were more than 100000 nM and 10 nM, respectively. Besides, the “Hyperresponsiveness AUC % Inhibition” value in assay [3] stood at 107%.
With `N=C(N)c1ccc2[nH]c(CC(=O)NCc3ccc(OCCCCCOc4ccc(CNC(=O)Cc5nc6cc(C(=N)N)ccc6[nH]5)cc4)cc3)nc2c1` [Example 108], the Ki is more than 100000 nM in assay [1] and 9 nM in assay [2]. For the same compound, in assay [3], the “Hyperresponsiveness AUC % Inhibition” value amounted to 68%.
